The source of these data is publication PMC8068134 (Toxins, 2021).

Like-named read-outs stand apart in the source and are kept apart here. Numbered stars: 1 amine (or outer) side, 2 acyl side, 3 side chain; on linkers, the order of the positions; unused ones are H or OH. Bridge positions count the residues as written; N and C are the ends. Square brackets hold non-standard residues; d marks the D form. Peptide text beside a SMILES is read from it. hTyr = N[C@@H](CCc1ccc(O)cc1)C(=O)O; NMeA = CN[C@@H](C)C(=O)O; CO = O=C([*:1])[*:2]

One series can be described thus: physchem. The note with it: cells or culture medium, 3rd day, mean ± SD, n = 3, read-out: Peptide Remaining Concentration (%), Negative Control, 3rd Day. It counts as physicochemical. The method, then: OD-corrected P. toxinivorans was transferred to the 96-well microplate in a solution with fresh culture media and individual peptides. For all experimental conditions, microplates were prepared to allow different sampling times over 7 days of incubation in a shaker incubator at 150 rpm and 28 °C. Three different plates were initially prepared maintaining the same conditions, and they were, respectively, taken to be considered as sampling time at 0, 3, and 7th days. This procedure was established in order to sample only once from each well to avoid the effect of differing volumes and potential contamination. At each sampling time, 150 µL were taken and added to 150 µL of 80% aqueous methanol solution with 2% formic acid (in a 1.5 mL centrifuge tube) in order to kill bacteria and stop their metabolism, as well as to precipitate large proteins, which could affect analytical procedures. Samples were centrifuged for 15 min at 13,000× g. Supernatants were recovered, 1:10 diluted (100:900 μL) in aqueous methanol 80% and stored at −20 °C until ultrahigh performance liquid chromatography coupled to mass spectrometry analysis (UPLC–MS). This experimental design was applied in all experiments in order to evaluate the biodegradation of peptides by P. toxinivorans. All experimental conditions were carried out in biological replicates (n = 3) and with negative controls without bacteria.
All peptides studied were analyzed by UPLC–PDA–MS/MS (Waters®, Manchester, UK) as described previously by Turner et al.. Briefly, chromatographic separation was carried out using a Waters ACQUITY UPLC BEH C18 column (1.7 µm, 2.1 × 100 mm) held at 60 °C. Samples were kept in the sample manager at 10 °C and the injection volume was 5 µL. Mobile phase consisted of (A) water + 0.025% formic acid and (B) acetonitrile + 0.025% formic acid at a flow rate of 0.6 mL/min. The gradient consisted of 2% B initial condition rising to 25% B at 0.5 min holding until 1.5 min, rising to 40% B at 3.0 min, increasing further to 50% B at 4 min, a quick rise to 95% B and 4.1 min and held until 4.5 min before dropping back to 2% B at 5 min. Detection wavelength was set at 238 nm. Mass spectrometric detection was performed with a triple quadrupole mass spectrometer (Waters Xevo TQ-XS, Manchester, UK) equipped with an electrospray ionization (ESI) interface operating in positive ionization mode. Operational parameters were as follow: 150 °C source temperature, 600 °C desolvation temperature, 600 L/h desolvation gas flow (N2), 150 L/h cone gas flow, and 0.15 mL/min collision gas flow (Ar). Capillary voltage was held at 1.0 kV. Multiple Reaction Monitoring (MRM) transitions used as well as retention time, chemical structure, and respective formula of peptides can be found in Table S2. […]

A short description of series [1]: enzymatic activity of a Sphingomonas species that possess mlr pathway. The note with it: cited from earlier work.
Series [2] is described as follows: Paucibacter toxinivorans (2C20) culture (OD600 0.4) in R2A media, pure MC-LR. The note with it: Paucibacter toxinivorans 2C20 strain, 28 °C, up to 7 days.
Series [3] is described as follows: Y2 strain culture; individual peptide, peptide mix, and M. aeruginosa crude extract. Conditions: Sphingosinicella microcystinivorans (Y2 strain).
The nature of series [4]: Paucibacter toxinivorans (2C20) culture in R2A media with cyanopeptide mix. Conditions: Paucibacter toxinivorans 2C20 strain, 28 °C, up to 7 days.
Series [5] is described as follows: enzymatic biodegradation product of Sphingopyxis sp. USTB05. Conditions: cited from earlier work.
The mark [6] stands for this setting: Individual peptide, 10 μg/mL, UPLC-MS/MS.

Regarding `CC[C@H](C)[C@@H]1NC(=O)[C@@H]2CSC(=N2)[C@@H]([C@@H](C)CC)NC(=O)c2csc(n2)CNC(=O)[C@H]2N=C1O[C@@H]2C` [AC-A, aerucyclamide A], in “physchem” (In MIX: MC-LR 10 μg/mL, other cyanopeptides 1 µg/mL), the remaining at 72 h was found to be 109 ± 5.6%.

Take `CSCC[C@@H]1NC(=O)[C@@H]2CSC(=N2)[C@@H](Cc2ccccc2)NC(=O)c2csc(n2)CNC(=O)[C@H]2N=C1O[C@@H]2C` [AC-D, aerucyclamide D]: in “physchem” (setting [6]), the remaining at 72 h is 113 ± 1.6%.

Consider `CC(C)[C@@H]1NC(=O)[C@H](NC(=O)N[C@@H](Cc2ccc(O)cc2)C(=O)O)CCCCNC(=O)[C@H](Cc2ccccc2)NC(=O)[C@H](C)N(C)C(=O)[C@H](CCc2ccc(O)cc2)NC1=O` [ANBP-A, anabaenopeptin A] ({Tyr-CO}-[dK]V[hTyr][NMeA]F; lactam 1-C), for which, in the series “physchem” (setting [6]), the remaining at 72 h came to 112 ± 8.1%.

On to `CC(C)[C@@H]1NC(=O)[C@H](NC(=O)N[C@@H](CCCNC(=N)N)C(=O)O)CCCCNC(=O)[C@H](Cc2ccccc2)NC(=O)[C@H](C)N(C)C(=O)[C@H](CCc2ccc(O)cc2)NC1=O` [ANBP-B, anabaenopeptin B] ({Arg-CO}-[dK]V[hTyr][NMeA]F; lactam 1-C), for which, in the series “physchem” (setting [6]), the remaining at 72 h is 100 ± 17.1%.

Adda-Glu-Mdha-Ala-Leu-Masp-Arg: the fragment found result in series [1] is “linearized MC-LR (biodegradation product A)”. In series [2], the cleaved bond result is “Arg-Adda, day 3”. For the same molecule, the not cleaved result in series [3] was “did not degrade any cyanobacterial peptides”.

With Adda-Glu-Mdha-Ala-Leu-Masp-Phe, the cleaved bond result in series [4] is “Phe-Adda, day 7”. Further, the not cleaved result in series [3] was “did not degrade any cyanobacterial peptides”.

For the molecule Adda-Glu-Mdha-Ala-Tyr-Masp-Arg, the fragment found result in series [5] was “linearized MC-YR (peptide C)”. For the same molecule, the cleaved bond result in series [4] is “Arg-Adda, day 7”. Besides, the not cleaved result in series [3] is “did not degrade any cyanobacterial peptides”.
